# Laboratory results taken from patent publication US20100099561A1, “HETEROBICYCLIC ALKYLTHIO-BRIDGED ISOXAZOLINES” (E.I. DU PONT DE NEMOURS AND COMPANY, priority 2008, published 2010).
# Assays:
# Format in all cases: in vivo
# [1] = system: large crabgrass (Digitaria sanguinalis); assay: Test A preemergence, large crabgrass; details: 0 to 100 scale (0 no effect, 100 complete control)
# Outline: (§1)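 Visual injury rating, 0 = no effect to 100 = complete control, made roughly ten days after treatment by comparison with untreated controls. Preemergence: directed soil spray onto freshly planted loam/sand. Postemergence: foliar application at one- to two-leaf stage, 2–10 cm height.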
# [2] = system: wheat (Triticum aestivum); assay: Test A postemergence, wheat; details: 0 to 100 scale (0 no effect, 100 complete control)
# Outline: as §1
# [3] = system: velvetleaf (Abutilon theophrasti); assay: Test A preemergence, velvetleaf; details: 0 to 100 scale (0 no effect, 100 complete control)
# Outline: as §1
# [4] = system: barnyardgrass (Echinochloa crus-galli); assay: Test A preemergence, barnyardgrass; details: 0 to 100 scale (0 no effect, 100 complete control)
# Outline: as §1
# [5] = system: pigweed (Amaranthus retroflexus); assay: Test A postemergence, pigweed; details: 0 to 100 scale (0 no effect, 100 complete control)
# Outline: as §1
# [6] = system: giant foxtail (Setaria faberi); assay: Test A preemergence, giant foxtail; details: 0 to 100 scale (0 no effect, 100 complete control)
# Outline: as §1
# [7] = system: ducksalad (Heteranthera limosa); assay: Test B flooded paddy test, ducksalad; details: Flood, scale 0 to 100
# Outline: (§2)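 Step one: raise plants to 2 leaves. Step two: flood pots 3 cm over the soil and apply compound into the water, keeping this depth. Step three: after 13–15 greenhouse days, score visually versus controls, 0–100, where 100 means complete control.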
# [8] = system: morningglory (Ipomoea spp.); assay: Test A postemergence, morningglory; details: 0 to 100 scale (0 no effect, 100 complete control)
# Outline: as §1
# [9] = system: umbrella sedge (Cyperus difformis); assay: Test B flooded paddy test, umbrella sedge; details: Flood, scale 0 to 100
# Outline: as §2
# [10] = system: pigweed (Amaranthus retroflexus); assay: Test A preemergence, pigweed; details: 0 to 100 scale (0 no effect, 100 complete control)
# Outline: as §1
# corn (Zea mays) [11] = assay: Test A preemergence, corn; details: 0 to 100 scale (0 no effect, 100 complete control)
# Outline: as §1
# [12] = system: giant foxtail (Setaria faberi); assay: Test A postemergence, giant foxtail; details: 0 to 100 scale (0 no effect, 100 complete control)
# Outline: as §1
# rice (Oryza sativa) = assay: Test B flooded paddy test, rice; details: Flood, scale 0 to 100
# Outline: as §2
# corn (Zea mays) [13] = assay: Test A postemergence, corn; details: 0 to 100 scale (0 no effect, 100 complete control)
# Outline: as §1
# [14] = system: barnyardgrass (Echinochloa crus-galli); assay: Test B flooded paddy test, barnyardgrass; details: Flood
# Outline: as §2
# [15] = system: morningglory (Ipomoea spp.); assay: Test A preemergence, morningglory; details: 0 to 100 scale (0 no effect, 100 complete control)
# Outline: as §1
# [16] = system: wheat (Triticum aestivum); assay: Test A preemergence, wheat; details: 0 to 100 scale (0 no effect, 100 complete control)
# Outline: as §1
# [17] = system: velvetleaf (Abutilon theophrasti); assay: Test A postemergence, velvetleaf; details: 0 to 100 scale (0 no effect, 100 complete control)
# Outline: as §1
# [18] = system: large crabgrass (Digitaria sanguinalis); assay: Test A postemergence, large crabgrass; details: 0 to 100 scale (0 no effect, 100 complete control)
# Outline: as §1
# [19] = system: barnyardgrass (Echinochloa crus-galli); assay: Test A postemergence, barnyardgrass; details: 0 to 100 scale (0 no effect, 100 complete control)
# Outline: as §1
# [20] = 250 g ai/ha, scale 0 to 100 (0 no effect, 100 complete control)
smiles,measurement,setting,value
CC1(C)CC(S(=O)(=O)Cc2c(C(F)(F)F)nc3cccnn3c2=O)=NO1 [Compound 45],"Plant response rating, Crabgrass, Large",[1]; 125 g ai/ha,20
same,"Plant response rating, Crabgrass, Large",[1]; 500 g ai/ha,90
same,"Plant response rating, Wheat",[2]; 125 g ai/ha,0
same,"Plant response rating, Wheat",[2]; 500 g ai/ha,0
same,"Plant response rating, Velvetleaf",[3]; 125 g ai/ha,0
same,"Plant response rating, Velvetleaf",[3]; 500 g ai/ha,0
same,"Plant response rating, Barnyardgrass",[4]; 125 g ai/ha,20
same,"Plant response rating, Barnyardgrass",[4]; 500 g ai/ha,90
same,"Plant response rating, Pigweed",[5]; 125 g ai/ha,0
same,"Plant response rating, Pigweed",[5]; 500 g ai/ha,10
same,"Plant response rating, Foxtail, Giant",[6]; 125 g ai/ha,30
same,"Plant response rating, Foxtail, Giant",[6]; 500 g ai/ha,90
same,"Plant response rating, Ducksalad",[7]; 31 g ai/ha,0
same,"Plant response rating, Ducksalad",[7]; 62 g ai/ha,0
same,"Plant response rating, Ducksalad",[7]; 125 g ai/ha,0
same,"Plant response rating, Ducksalad",[7]; 250 g ai/ha,0
same,"Plant response rating, Morningglory",[8]; 125 g ai/ha,0
same,"Plant response rating, Morningglory",[8]; 500 g ai/ha,30
same,"Plant response rating, Sedge, Umbrella",[9]; 31 g ai/ha,0
same,"Plant response rating, Sedge, Umbrella",[9]; 62 g ai/ha,0
same,"Plant response rating, Sedge, Umbrella",[9]; 125 g ai/ha,0
same,"Plant response rating, Sedge, Umbrella",[9]; 250 g ai/ha,0
same,"Plant response rating, Pigweed",[10]; 500 g ai/ha,0
same,"Plant response rating, Corn",corn (Zea mays) [11]; 125 g ai/ha,0
same,"Plant response rating, Corn",corn (Zea mays) [11]; 500 g ai/ha,0
same,"Plant response rating, Foxtail, Giant",[12]; 125 g ai/ha,20
same,"Plant response rating, Foxtail, Giant",[12]; 500 g ai/ha,60
same,"Plant response rating, Rice",rice (Oryza sativa); 31 g ai/ha,0
same,"Plant response rating, Rice",rice (Oryza sativa); 62 g ai/ha,0
same,"Plant response rating, Rice",rice (Oryza sativa); 125 g ai/ha,0
same,"Plant response rating, Rice",rice (Oryza sativa); 250 g ai/ha,0
same,"Plant response rating, Corn",corn (Zea mays) [13]; 125 g ai/ha,0
same,"Plant response rating, Corn",corn (Zea mays) [13]; 500 g ai/ha,0
same,"Plant response rating, Barnyardgrass","[14]; 31 g ai/ha, scale 0 to 100",0
same,"Plant response rating, Barnyardgrass","[14]; 62 g ai/ha, scale 0 to 100",0
same,"Plant response rating, Barnyardgrass","[14]; 125 g ai/ha, scale 0 to 100",0
same,"Plant response rating, Barnyardgrass",[14]; [20],0
same,"Plant response rating, Morningglory",[15]; 125 g ai/ha,0
same,"Plant response rating, Morningglory",[15]; 500 g ai/ha,0
same,"Plant response rating, Wheat",[16]; 125 g ai/ha,0
same,"Plant response rating, Wheat",[16]; 500 g ai/ha,10
same,"Plant response rating, Velvetleaf",[17]; 125 g ai/ha,0
same,"Plant response rating, Velvetleaf",[17]; 500 g ai/ha,0
same,"Plant response rating, Crabgrass, Large",[18]; 125 g ai/ha,20
same,"Plant response rating, Crabgrass, Large",[18]; 500 g ai/ha,70
same,"Plant response rating, Barnyardgrass",[19]; 125 g ai/ha,30
same,"Plant response rating, Barnyardgrass",[19]; 500 g ai/ha,70
CC1(C)CC([S+]([O-])Cc2c(C(F)(F)F)nc3cccnn3c2=O)=NO1 (stereo not drawn) [Compound 46],"Plant response rating, Crabgrass, Large",[1]; 125 g ai/ha,0
same,"Plant response rating, Crabgrass, Large",[1]; 500 g ai/ha,0
same,"Plant response rating, Wheat",[2]; 125 g ai/ha,0
same,"Plant response rating, Wheat",[2]; 500 g ai/ha,0
same,"Plant response rating, Velvetleaf",[3]; 125 g ai/ha,0
same,"Plant response rating, Velvetleaf",[3]; 500 g ai/ha,20
same,"Plant response rating, Barnyardgrass",[4]; 125 g ai/ha,0
same,"Plant response rating, Barnyardgrass",[4]; 500 g ai/ha,0
same,"Plant response rating, Pigweed",[5]; 125 g ai/ha,0
same,"Plant response rating, Pigweed",[5]; 500 g ai/ha,0
same,"Plant response rating, Foxtail, Giant",[6]; 125 g ai/ha,0
same,"Plant response rating, Foxtail, Giant",[6]; 500 g ai/ha,0
same,"Plant response rating, Ducksalad",[7]; 31 g ai/ha,0
same,"Plant response rating, Ducksalad",[7]; 62 g ai/ha,0
same,"Plant response rating, Ducksalad",[7]; 125 g ai/ha,0
same,"Plant response rating, Ducksalad",[7]; 250 g ai/ha,0
same,"Plant response rating, Morningglory",[8]; 125 g ai/ha,0
same,"Plant response rating, Morningglory",[8]; 500 g ai/ha,0
same,"Plant response rating, Sedge, Umbrella",[9]; 31 g ai/ha,0
same,"Plant response rating, Sedge, Umbrella",[9]; 62 g ai/ha,0
same,"Plant response rating, Sedge, Umbrella",[9]; 125 g ai/ha,0
same,"Plant response rating, Sedge, Umbrella",[9]; 250 g ai/ha,0
same,"Plant response rating, Pigweed",[10]; 125 g ai/ha,0
same,"Plant response rating, Pigweed",[10]; 500 g ai/ha,0
same,"Plant response rating, Corn",corn (Zea mays) [11]; 125 g ai/ha,0
same,"Plant response rating, Corn",corn (Zea mays) [11]; 500 g ai/ha,0
same,"Plant response rating, Foxtail, Giant",[12]; 125 g ai/ha,0
same,"Plant response rating, Foxtail, Giant",[12]; 500 g ai/ha,0
same,"Plant response rating, Rice",rice (Oryza sativa); 31 g ai/ha,0
same,"Plant response rating, Rice",rice (Oryza sativa); 62 g ai/ha,0
same,"Plant response rating, Rice",rice (Oryza sativa); 125 g ai/ha,0
same,"Plant response rating, Rice",rice (Oryza sativa); 250 g ai/ha,0
same,"Plant response rating, Corn",corn (Zea mays) [13]; 125 g ai/ha,0
same,"Plant response rating, Corn",corn (Zea mays) [13]; 500 g ai/ha,0
same,"Plant response rating, Barnyardgrass","[14]; 31 g ai/ha, scale 0 to 100",0
same,"Plant response rating, Barnyardgrass","[14]; 62 g ai/ha, scale 0 to 100",0
same,"Plant response rating, Barnyardgrass","[14]; 125 g ai/ha, scale 0 to 100",0
same,"Plant response rating, Barnyardgrass",[14]; [20],0
same,"Plant response rating, Morningglory",[15]; 125 g ai/ha,0
same,"Plant response rating, Morningglory",[15]; 500 g ai/ha,0
same,"Plant response rating, Wheat",[16]; 125 g ai/ha,0
same,"Plant response rating, Wheat",[16]; 500 g ai/ha,0
same,"Plant response rating, Velvetleaf",[17]; 125 g ai/ha,0
same,"Plant response rating, Velvetleaf",[17]; 500 g ai/ha,0
same,"Plant response rating, Crabgrass, Large",[18]; 125 g ai/ha,0
same,"Plant response rating, Crabgrass, Large",[18]; 500 g ai/ha,0
same,"Plant response rating, Barnyardgrass",[19]; 125 g ai/ha,0
same,"Plant response rating, Barnyardgrass",[19]; 500 g ai/ha,0
Cc1con2c(=O)c(C[S+]([O-])C3=NOC(C)(C)C3)c(C(F)(F)F)nc12 (stereo not drawn) [Compound 47],"Plant response rating, Crabgrass, Large",[1]; 125 g ai/ha,0
same,"Plant response rating, Crabgrass, Large",[1]; 500 g ai/ha,20
same,"Plant response rating, Wheat",[2]; 125 g ai/ha,0
same,"Plant response rating, Wheat",[2]; 500 g ai/ha,0
same,"Plant response rating, Velvetleaf",[3]; 125 g ai/ha,0
same,"Plant response rating, Velvetleaf",[3]; 500 g ai/ha,0
same,"Plant response rating, Barnyardgrass",[4]; 125 g ai/ha,0
same,"Plant response rating, Barnyardgrass",[4]; 500 g ai/ha,70
same,"Plant response rating, Pigweed",[5]; 125 g ai/ha,0
same,"Plant response rating, Pigweed",[5]; 500 g ai/ha,0
same,"Plant response rating, Foxtail, Giant",[6]; 125 g ai/ha,0
same,"Plant response rating, Foxtail, Giant",[6]; 500 g ai/ha,30
same,"Plant response rating, Ducksalad",[7]; 62 g ai/ha,0
same,"Plant response rating, Ducksalad",[7]; 250 g ai/ha,0
same,"Plant response rating, Morningglory",[8]; 125 g ai/ha,0
same,"Plant response rating, Morningglory",[8]; 500 g ai/ha,20
same,"Plant response rating, Sedge, Umbrella",[9]; 62 g ai/ha,0
same,"Plant response rating, Sedge, Umbrella",[9]; 250 g ai/ha,0
same,"Plant response rating, Pigweed",[10]; 125 g ai/ha,0
same,"Plant response rating, Pigweed",[10]; 500 g ai/ha,0
same,"Plant response rating, Corn",corn (Zea mays) [11]; 125 g ai/ha,0
same,"Plant response rating, Corn",corn (Zea mays) [11]; 500 g ai/ha,0
same,"Plant response rating, Foxtail, Giant",[12]; 125 g ai/ha,0
same,"Plant response rating, Foxtail, Giant",[12]; 500 g ai/ha,60
same,"Plant response rating, Rice",rice (Oryza sativa); 62 g ai/ha,0
same,"Plant response rating, Rice",rice (Oryza sativa); 250 g ai/ha,0
same,"Plant response rating, Corn",corn (Zea mays) [13]; 125 g ai/ha,0
same,"Plant response rating, Corn",corn (Zea mays) [13]; 500 g ai/ha,20
same,"Plant response rating, Barnyardgrass","[14]; 62 g ai/ha, scale 0 to 100",0
same,"Plant response rating, Barnyardgrass",[14]; [20],0
same,"Plant response rating, Morningglory",[15]; 125 g ai/ha,0
same,"Plant response rating, Morningglory",[15]; 500 g ai/ha,0
same,"Plant response rating, Wheat",[16]; 125 g ai/ha,0
same,"Plant response rating, Wheat",[16]; 500 g ai/ha,0
same,"Plant response rating, Velvetleaf",[17]; 125 g ai/ha,0
same,"Plant response rating, Velvetleaf",[17]; 500 g ai/ha,0
same,"Plant response rating, Crabgrass, Large",[18]; 125 g ai/ha,0
same,"Plant response rating, Crabgrass, Large",[18]; 500 g ai/ha,60
same,"Plant response rating, Barnyardgrass",[19]; 125 g ai/ha,0
same,"Plant response rating, Barnyardgrass",[19]; 500 g ai/ha,50
